Twelve molecules from ChEMBL document CHEMBL5465560, “Selectivity Literature for EUbOPEN Chemogenomic Library” (2024) can be followed below.

The target of experiment [1] is Phosphorylase b kinase gamma catalytic chain, skeletal muscle/heart isoform (Homo sapiens) (UniProt Q16816). In words: Selectivity interaction (Kinase panel (Z-LYTE Assay)) EUB0001632a PHKG1. The following applies: at 10 µM.
For experiment [2], the target named is Protein arginine N-methyltransferase 6 (Homo sapiens, UniProt Q96LA8). In words: Selectivity interaction (Methyltransferase screen (Scintillation proximity assays)) EUB0000255b PRMT6.
The target in experiment [3] is Serine/threonine-protein kinase pim-1 (Homo sapiens, UniProt P11309). The note with it: at 10 µM.
In experiment [4] the target is 5'-AMP-activated protein kinase catalytic subunit alpha-1 (Homo sapiens, UniProt Q13131). The note with it: at 10 µM.
Experiment [5] has as its target Dual specificity protein kinase CLK3 (Homo sapiens, UniProt P49761). In words: Selectivity interaction (SelectScreen profiling (Invitrogen)) EUB0000607a CLK3. The note with it: at 2 µM.
Experiment [6] has as its target T1, Scaffold protein ILK (Homo sapiens) (UniProt Q13418).
T1 sequence (whole entry): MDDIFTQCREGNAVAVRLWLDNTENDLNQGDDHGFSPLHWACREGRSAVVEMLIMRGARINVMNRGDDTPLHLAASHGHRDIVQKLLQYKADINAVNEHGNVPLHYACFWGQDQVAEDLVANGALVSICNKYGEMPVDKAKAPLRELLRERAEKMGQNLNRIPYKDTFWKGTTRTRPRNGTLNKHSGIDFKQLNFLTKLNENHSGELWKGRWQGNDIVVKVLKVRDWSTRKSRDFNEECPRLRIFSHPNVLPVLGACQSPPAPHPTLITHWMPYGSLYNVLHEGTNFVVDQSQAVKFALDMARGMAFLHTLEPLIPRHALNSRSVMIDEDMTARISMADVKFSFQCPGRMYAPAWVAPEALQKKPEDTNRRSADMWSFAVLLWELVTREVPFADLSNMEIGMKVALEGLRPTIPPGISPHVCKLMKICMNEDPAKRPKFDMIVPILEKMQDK
In words: Selectivity interaction (ActivX KiNativ screen (kinase selectivity in THP-1 cell lysates)) EUB0000639a ILK. The class given is subcellular. The following applies: lysate, at 1 µM.

In another experiment the target is Ephrin type-A receptor 4 (Homo sapiens, UniProt P54764). Description: Selectivity interaction (Kinase panel (Invitrogen)) EUB0000639a EPHA4. The following applies: at 200 nM.
Experiment [7] deals with Mitogen-activated protein kinase kinase kinase 11 (Homo sapiens) (UniProt Q16584). In words: Selectivity interaction (KinomeScan (DiscoverX)) EUB0000045b MAP3K11.
In experiment [8] the target is T2, Aurora kinase C (Homo sapiens) (UniProt Q9UQB9).
T2 sequence (whole entry): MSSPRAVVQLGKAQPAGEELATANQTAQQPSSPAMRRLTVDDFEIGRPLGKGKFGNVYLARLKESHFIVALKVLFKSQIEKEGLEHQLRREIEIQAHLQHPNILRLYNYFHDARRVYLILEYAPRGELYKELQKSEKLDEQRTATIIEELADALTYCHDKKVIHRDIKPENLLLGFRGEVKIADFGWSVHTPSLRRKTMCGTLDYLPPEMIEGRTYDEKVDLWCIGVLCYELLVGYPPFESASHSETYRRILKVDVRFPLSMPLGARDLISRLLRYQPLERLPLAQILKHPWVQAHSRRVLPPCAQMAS
Description: Selectivity interaction (ProQinase) EUB0000171b AURKC.

Experiment [9] has as its target T3, Ephrin type-B receptor 1 (Homo sapiens) (UniProt P54762).
T3 sequence (whole entry): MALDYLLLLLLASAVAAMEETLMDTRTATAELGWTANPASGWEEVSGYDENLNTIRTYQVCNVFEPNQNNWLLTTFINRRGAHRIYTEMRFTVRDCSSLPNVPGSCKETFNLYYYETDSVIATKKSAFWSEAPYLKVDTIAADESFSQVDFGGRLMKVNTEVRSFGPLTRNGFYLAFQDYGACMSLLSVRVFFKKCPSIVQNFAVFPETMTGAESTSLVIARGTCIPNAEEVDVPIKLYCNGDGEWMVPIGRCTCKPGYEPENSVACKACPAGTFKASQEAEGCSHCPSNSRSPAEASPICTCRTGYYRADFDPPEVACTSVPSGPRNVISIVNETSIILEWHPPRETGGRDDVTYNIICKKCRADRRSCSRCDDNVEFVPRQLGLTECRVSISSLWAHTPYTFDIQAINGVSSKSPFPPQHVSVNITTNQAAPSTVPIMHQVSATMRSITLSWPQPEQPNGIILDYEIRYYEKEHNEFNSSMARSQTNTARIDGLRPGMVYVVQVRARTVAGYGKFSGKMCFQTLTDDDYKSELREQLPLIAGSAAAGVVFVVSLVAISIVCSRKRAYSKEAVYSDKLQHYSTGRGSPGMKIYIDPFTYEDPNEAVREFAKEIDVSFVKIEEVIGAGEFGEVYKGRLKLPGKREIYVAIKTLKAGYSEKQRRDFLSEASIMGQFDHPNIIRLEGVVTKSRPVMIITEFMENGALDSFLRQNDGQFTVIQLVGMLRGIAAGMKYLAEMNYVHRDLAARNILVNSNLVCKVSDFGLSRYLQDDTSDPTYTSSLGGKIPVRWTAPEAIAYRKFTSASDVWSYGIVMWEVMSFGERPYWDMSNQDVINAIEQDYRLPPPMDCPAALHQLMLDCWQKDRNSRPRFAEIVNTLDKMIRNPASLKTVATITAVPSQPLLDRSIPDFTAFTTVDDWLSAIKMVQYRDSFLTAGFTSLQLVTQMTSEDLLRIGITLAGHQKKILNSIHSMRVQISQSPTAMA
In words: Selectivity interaction (Ambit KINOMEscan and KiNATiv profiling in Jurkat cells) EUB0000090b EPHB1. The following applies: at 1 µM. It is filed as cell-based.

For experiment [10], the target named is Receptor tyrosine-protein kinase erbB-2 (Homo sapiens, UniProt P04626). In words: Selectivity interaction (KinomeScan (DiscoverX)) EUB0001049a ERBB2. The note with it: at 1 µM.
In experiment [11] the target is Serine/threonine-protein kinase PAK 2 (Homo sapiens) (UniProt Q13177). In words: Selectivity interaction (Upstate Kinase Profiler service (Millipore)) EUB0000056c PAK2. The note with it: at 1 µM.
Experiment [12] concerns the target Calcium/calmodulin-dependent protein kinase type II subunit gamma (Homo sapiens) (UniProt Q13555). Description: Selectivity interaction (KinomeScan (DiscoverX)) EUB0000229b CAMK2G. The following applies: at 10 µM.

Protein arginine N-methyltransferase 6, sequence (Q96LA8 whole entry, looked up): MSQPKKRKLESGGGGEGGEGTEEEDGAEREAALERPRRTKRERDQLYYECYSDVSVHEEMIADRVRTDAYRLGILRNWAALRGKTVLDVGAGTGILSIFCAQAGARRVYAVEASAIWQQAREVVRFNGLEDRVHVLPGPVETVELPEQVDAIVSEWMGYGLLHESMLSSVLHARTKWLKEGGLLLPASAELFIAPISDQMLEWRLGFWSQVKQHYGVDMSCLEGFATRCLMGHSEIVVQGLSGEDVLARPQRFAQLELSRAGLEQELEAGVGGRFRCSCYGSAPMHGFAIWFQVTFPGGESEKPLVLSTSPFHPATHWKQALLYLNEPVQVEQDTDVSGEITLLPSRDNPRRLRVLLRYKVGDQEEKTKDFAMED
Mitogen-activated protein kinase kinase kinase 11 (Homo sapiens), sequence (Q16584 whole entry, looked up): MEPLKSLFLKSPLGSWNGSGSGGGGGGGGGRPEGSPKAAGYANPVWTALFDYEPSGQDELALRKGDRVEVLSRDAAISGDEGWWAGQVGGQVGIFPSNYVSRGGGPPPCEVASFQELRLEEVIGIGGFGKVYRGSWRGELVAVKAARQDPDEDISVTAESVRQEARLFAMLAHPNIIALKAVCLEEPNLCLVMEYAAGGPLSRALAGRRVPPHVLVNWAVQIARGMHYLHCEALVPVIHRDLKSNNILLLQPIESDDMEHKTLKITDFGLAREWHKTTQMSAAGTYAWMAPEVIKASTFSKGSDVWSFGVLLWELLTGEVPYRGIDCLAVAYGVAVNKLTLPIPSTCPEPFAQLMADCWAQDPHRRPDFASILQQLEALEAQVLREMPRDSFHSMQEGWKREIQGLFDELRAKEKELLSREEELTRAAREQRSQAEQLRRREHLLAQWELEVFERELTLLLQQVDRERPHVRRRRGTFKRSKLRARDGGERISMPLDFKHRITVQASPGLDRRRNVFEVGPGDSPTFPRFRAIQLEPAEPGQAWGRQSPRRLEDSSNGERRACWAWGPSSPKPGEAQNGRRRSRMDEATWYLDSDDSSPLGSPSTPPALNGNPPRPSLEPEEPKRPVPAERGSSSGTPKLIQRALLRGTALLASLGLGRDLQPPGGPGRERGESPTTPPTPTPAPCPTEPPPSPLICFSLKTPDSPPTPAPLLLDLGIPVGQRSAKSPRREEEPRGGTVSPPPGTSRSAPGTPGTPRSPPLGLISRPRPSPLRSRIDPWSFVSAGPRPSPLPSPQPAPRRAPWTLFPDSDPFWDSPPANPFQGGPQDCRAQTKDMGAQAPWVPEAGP
Receptor tyrosine-protein kinase erbB-2, sequence (P04626 whole entry): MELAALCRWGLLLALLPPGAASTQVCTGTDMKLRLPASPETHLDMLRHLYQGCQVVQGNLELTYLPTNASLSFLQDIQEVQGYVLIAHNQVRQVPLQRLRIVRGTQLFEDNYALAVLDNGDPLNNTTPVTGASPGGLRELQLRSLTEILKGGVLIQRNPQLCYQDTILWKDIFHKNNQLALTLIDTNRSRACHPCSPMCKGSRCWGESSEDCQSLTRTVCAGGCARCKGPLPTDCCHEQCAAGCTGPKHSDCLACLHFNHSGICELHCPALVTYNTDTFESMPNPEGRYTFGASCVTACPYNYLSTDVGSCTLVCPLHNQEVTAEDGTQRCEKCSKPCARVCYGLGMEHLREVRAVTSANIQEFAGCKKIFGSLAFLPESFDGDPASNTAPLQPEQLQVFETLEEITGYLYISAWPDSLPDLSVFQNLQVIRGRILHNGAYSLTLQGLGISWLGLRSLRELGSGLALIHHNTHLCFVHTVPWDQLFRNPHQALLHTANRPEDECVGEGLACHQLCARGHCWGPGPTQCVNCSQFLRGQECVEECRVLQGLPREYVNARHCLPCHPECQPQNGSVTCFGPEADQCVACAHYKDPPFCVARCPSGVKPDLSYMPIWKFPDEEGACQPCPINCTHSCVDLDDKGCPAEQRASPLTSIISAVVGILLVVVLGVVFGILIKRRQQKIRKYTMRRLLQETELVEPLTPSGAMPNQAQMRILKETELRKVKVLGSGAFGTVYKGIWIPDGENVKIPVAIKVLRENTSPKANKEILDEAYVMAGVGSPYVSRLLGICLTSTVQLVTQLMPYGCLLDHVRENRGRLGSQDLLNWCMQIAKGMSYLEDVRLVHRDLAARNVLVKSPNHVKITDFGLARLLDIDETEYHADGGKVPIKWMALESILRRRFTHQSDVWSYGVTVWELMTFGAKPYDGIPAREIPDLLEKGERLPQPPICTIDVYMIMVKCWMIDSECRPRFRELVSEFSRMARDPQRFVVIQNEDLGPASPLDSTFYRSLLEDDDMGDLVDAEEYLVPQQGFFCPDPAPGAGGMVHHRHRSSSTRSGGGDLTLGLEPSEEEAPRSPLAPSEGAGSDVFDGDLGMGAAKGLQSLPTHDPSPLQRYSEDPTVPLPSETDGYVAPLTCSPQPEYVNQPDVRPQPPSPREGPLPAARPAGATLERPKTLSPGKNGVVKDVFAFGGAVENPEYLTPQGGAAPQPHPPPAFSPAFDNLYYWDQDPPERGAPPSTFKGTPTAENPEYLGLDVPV
Serine/threonine-protein kinase pim-1, sequence (P11309 whole entry, looked up): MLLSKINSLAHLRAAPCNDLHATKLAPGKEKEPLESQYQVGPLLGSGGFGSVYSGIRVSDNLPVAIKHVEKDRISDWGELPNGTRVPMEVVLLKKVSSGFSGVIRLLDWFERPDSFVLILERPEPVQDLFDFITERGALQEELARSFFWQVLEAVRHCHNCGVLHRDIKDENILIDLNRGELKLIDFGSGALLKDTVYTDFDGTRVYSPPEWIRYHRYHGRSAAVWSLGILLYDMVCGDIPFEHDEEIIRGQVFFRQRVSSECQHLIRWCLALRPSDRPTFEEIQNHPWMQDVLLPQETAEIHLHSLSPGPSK
Phosphorylase b kinase gamma catalytic chain, skeletal muscle/heart isoform (Homo sapiens), sequence (Q16816 whole entry, looked up, canonical isoform): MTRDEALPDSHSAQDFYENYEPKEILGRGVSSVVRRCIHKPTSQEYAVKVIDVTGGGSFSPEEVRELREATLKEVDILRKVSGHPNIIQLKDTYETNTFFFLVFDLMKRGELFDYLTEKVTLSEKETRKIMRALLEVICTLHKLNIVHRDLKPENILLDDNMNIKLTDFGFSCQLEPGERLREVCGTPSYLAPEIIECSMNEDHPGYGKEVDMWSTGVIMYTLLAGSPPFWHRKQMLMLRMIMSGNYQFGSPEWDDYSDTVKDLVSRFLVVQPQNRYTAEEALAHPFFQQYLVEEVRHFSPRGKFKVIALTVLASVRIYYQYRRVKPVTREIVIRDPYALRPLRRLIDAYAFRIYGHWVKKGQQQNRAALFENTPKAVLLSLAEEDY
Serine/threonine-protein kinase PAK 2 (Homo sapiens), sequence (Q13177 whole entry): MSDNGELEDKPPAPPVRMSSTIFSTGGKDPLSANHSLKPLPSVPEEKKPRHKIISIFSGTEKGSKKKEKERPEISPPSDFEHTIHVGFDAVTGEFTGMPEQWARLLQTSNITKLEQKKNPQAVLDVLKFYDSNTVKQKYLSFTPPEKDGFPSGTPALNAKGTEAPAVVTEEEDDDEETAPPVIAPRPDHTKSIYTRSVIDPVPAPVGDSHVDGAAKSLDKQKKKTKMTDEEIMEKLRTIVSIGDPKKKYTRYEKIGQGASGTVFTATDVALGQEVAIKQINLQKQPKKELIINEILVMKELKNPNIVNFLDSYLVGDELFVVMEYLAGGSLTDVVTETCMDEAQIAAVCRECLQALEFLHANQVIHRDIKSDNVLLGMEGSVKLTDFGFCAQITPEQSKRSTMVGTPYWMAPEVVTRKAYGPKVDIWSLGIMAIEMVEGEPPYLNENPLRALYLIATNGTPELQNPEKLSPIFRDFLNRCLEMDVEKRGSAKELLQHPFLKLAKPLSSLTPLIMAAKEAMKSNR
Calcium/calmodulin-dependent protein kinase type II subunit gamma (Homo sapiens), sequence (Q13555 whole entry): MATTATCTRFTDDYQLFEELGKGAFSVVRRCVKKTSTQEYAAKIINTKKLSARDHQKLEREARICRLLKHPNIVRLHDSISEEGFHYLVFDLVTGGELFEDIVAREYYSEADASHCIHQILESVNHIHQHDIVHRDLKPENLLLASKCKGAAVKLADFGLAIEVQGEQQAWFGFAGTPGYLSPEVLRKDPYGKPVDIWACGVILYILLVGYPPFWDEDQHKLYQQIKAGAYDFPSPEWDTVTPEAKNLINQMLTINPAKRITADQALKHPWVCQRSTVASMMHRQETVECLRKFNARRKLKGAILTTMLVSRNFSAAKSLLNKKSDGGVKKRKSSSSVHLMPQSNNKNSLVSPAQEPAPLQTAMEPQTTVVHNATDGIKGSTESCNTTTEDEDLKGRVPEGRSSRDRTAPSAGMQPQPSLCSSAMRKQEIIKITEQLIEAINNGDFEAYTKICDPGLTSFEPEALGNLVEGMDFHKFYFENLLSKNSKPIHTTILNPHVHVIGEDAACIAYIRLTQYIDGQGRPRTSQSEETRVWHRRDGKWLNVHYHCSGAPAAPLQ
Dual specificity protein kinase CLK3, sequence (P49761 whole entry, looked up): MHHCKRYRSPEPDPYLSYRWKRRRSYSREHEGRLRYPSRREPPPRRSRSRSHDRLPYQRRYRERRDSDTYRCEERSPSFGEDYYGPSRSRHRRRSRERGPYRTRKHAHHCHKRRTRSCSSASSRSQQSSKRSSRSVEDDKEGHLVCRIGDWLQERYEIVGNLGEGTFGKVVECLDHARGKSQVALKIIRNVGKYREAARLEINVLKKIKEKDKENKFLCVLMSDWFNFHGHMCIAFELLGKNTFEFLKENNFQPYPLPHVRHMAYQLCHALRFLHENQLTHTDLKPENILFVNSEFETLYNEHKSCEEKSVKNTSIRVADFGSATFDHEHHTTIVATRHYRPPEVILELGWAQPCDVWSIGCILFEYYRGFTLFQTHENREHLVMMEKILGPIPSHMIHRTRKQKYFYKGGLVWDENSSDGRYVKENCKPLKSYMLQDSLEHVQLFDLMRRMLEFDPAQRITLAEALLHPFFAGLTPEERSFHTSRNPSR

For `Cn1cc(-n2cnc3c(NCc4nc5cc(Cl)c(Cl)cc5[nH]4)nc(N4CCOCC4)nc32)cn1`, in experiment [1], the % of control was -6.26%.

As to `COCCN1CCC(c2cc(CN(C)C(=O)c3cccc(Oc4ccccc4)c3)ccn2)CC1`, the % activity in [2] (at 1 µM) was 17%; in experiment [2] (at 10 µM), above 90%.

In the case of `COCC(=O)NC/C=C/c1ccc2ncnc(Nc3ccc(Oc4ccc(C)nc4)c(C)c3)c2c1` [CP-724714], the % of control in experiment [3] came out at 100%.

On to `CCN(CC)CCCCNc1ncc2cc(-c3cc(OC)cc(OC)c3)c(NC(=O)NC(C)(C)C)nc2n1`, for which the % of control in experiment [4] was 100%.

In the case of `CNC(=O)Nc1ccc(-c2nc(N3CC4CCC(C3)O4)c3cnn(C4CCC5(CC4)OCCO5)c3n2)cc1`, the % of inhibition in [5] was 2%.

As for `CC[C@@H]1[C@H](F)C(=O)N[C@@H]1COc1nccc2cc(C(N)=O)c(OC)cc12` [ZIMLOVISERTIB], the results for the % of inhibition (in experiment [6]; on Ephrin type-A receptor 4) were -17.5% and 6.54%, respectively.

`C=CC(=O)Nc1cc(-n2c(=O)ccc3cnc4ccc(-c5ccc(NS(C)(=O)=O)cc5)cc4c32)ccc1C`: the % of control worked out at 91% in [7] (at 1 µM) and 87% in experiment [7] (at 10 µM).

In the case of `C=CC(=O)Nc1cccc(C(=O)Nc2ccc(Nc3cc(-c4[nH]c(SC)nc4C)ccn3)cc2)c1`, the values for the % of control in [8] (at 1 µM) and in experiment [8] (at 5 µM) were 86% and 57%, respectively.

For the molecule `CN(C)C/C=C/C(=O)Nc1ccc(C(=O)N2CCCC(Nc3ncc(Cl)c(-c4c[nH]c5ccccc45)n3)C2)cc1` (stereo unspecified), the % of control in experiment [9] came to 95%.

Take `COc1cc(Nc2nc(C)cc(-c3cnn4nc(OC)ccc34)n2)cc(C(F)(F)F)c1`: the % of control in [10] worked out at 100%.

In the case of `Cc1ccc(-c2ccc3c(ccc4sc5c(c43)NC[C@@H](C)NC5=O)n2)cn1`, the % of inhibition in experiment [11] worked out at 37%.

With `COc1cc(N(C)c2ccnc3ccc(C(F)(F)F)cc23)cc(OC)c1OC`, the % binding in experiment [12] turned out to be 90%.
